Experiments:
Format in all cases: cell-based, human
HET cells (THEKs) = test: Immunoblot of KRT10 and KRT14 in keratinocyte lysates; details: 1 μM Dab, 1 μM Tram, 10 μM U0126, 10 μM PD184352, 20 μM PD98059 (FIG. 10D)
Experimental: THEKs were seeded at a density of 1×10^6 cells per well of 6-well cell culture dishes in KSFM. Upon reaching confluence, KSFM was replaced with E-medium containing vehicle control (DMSO) or inhibitors at the following concentrations: Dabrafenib (1 μM), trametinib (1 μM), U0126 (10 μM), PD184352 (10 μM), or PD98059 (20 μM). After 72 hours, whole-cell lysates were generated by washing cells once in PBS followed by lysis in urea sample buffer [8 M Urea, 60 mM Tris, 1% sodium dodecyl sulfate (SDS), 10% glycerol, 5% β-mercaptoethanol, 0.0005% pyronin-Y, pH 6.8] for 10 min. Lysates were homogenized using a microtip probe sonicator (Fisher Scientific).
Whole-cell lysates were loaded onto Any kD Mini-PROTEAN TGX Precast Protein Gels (Bio-Rad) and separated by electrophoresis. Proteins were transferred onto nitrocellulose membranes (Bio-Rad) in ice-cold Towbin transfer buffer (25 mM Tris, 192 mM glycine, 20% (v/v) methanol) at 100 volts (V) for 90 minutes at 4° C. Membranes were blocked in Intercept tris-buffered saline (TBS) blocking buffer (LI-COR) for 45 min at room temperature. Membranes were probed overnight at 4° C. with the primary antibodies diluted at 1:1000 in Intercept TBS blocking buffer (LI-COR). […]

ERK = test: Western blotting of pERK in NHEK lysates; details: Dab 1 μM or Vem 10 μM alone, 24 hours in E-medium, vs DMSO
Experimental: (§1) NHEKs were seeded at a density of 1×10^6 cells per well of 6-well cell culture dishes in M154. Upon reaching confluence, M154 was replaced with E-medium containing vehicle control (DMSO) or inhibitors at the following concentrations: Dabrafenib (1 μM), vemurafenib (10 μM), trametinib (1 μM). After 24 hours, whole-cell lysates were generated by washing cells once in phosphate-buffered saline (PBS) followed by lysis in urea sample buffer [8 M Urea, 60 mM Tris, 1% SDS, 10% glycerol, 5% β-mercaptoethanol, 0.0005% pyronin-Y, pH 6.8] for 10 min. Lysates were homogenized using a microtip probe sonicator (Fisher Scientific).
(§2) Whole-cell lysates were loaded onto NuPAGE 12% Bis-Tris Gels (Thermo-Fisher Cat. #NP0343BOX) and separated by electrophoresis using NuPAGE MES SDS Running Buffer (Thermo-Fisher Cat. #NP0002). Proteins were transferred onto Immobilon-FL membrane (Millipore of Burlington, MA, Cat. #IPFL85R) in transfer buffer (25 mM Tris, 192 mM glycine, 20% (v/v) methanol) at 50 volts (V) for 60 minutes. Membranes were blocked in Intercept tris-buffered saline (TBS) blocking buffer (LI-COR) for 60 minutes at room temperature. Membranes were probed overnight at 4° C. with the primary antibodies diluted in Intercept TBS blocking buffer (LI-COR). […]

NHEKs = test: Immunoblot of cadherins and plakoglobin in NHEK lysates; details: 24 hours in E-medium, vs DMSO
Experimental: as §1, §2

SMILES: CC(C)(C)c1nc(-c2cccc(NS(=O)(=O)c3c(F)cccc3F)c2F)c(-c2ccnc(N)n2)s1 [dabrafenib]
- KRT10 by immunoblot (HET cells (THEKs)): failed to rescue KRT10 expression
- pERK by Western blotting (ERK): sufficient to increase the active phosphorylated form of ERK (pERK)
- protein levels of classical cadherins, desmosomal cadherins (DSG1, DSG2, DSG3) and plakoglobin (NHEKs): did not appreciably alter

Source: patent US20240299394A1, “TARGETED TREATMENT FOR SKIN FRAGILITY DISEASES” (University of Washington, priority 2023, published 2024)
